Laboratory results reported in patent US20210277003A1, “OGA INHIBITOR COMPOUNDS” (Janssen Pharmaceutica NV, priority 2018, published 2021).

Columns and labels:
[1] = target: T1, recombinant human Meningioma Expressed Antigen 5 (MGEA5), also referred to as O-GlcNAcase (OGA) (Homo sapiens, UniProt O60502); experiment: OGA biochemical assay: inhibition of hydrolysis of fluorescein mono-ß-D-N-Acetyl-Glucosamine (FM-GlcNAc), fluorescence readout; details: FM-GlcNAc substrate; for Emax: read-out: Enzymatic Emax (%); for IC50: read-out: Enzymatic hOGA, pIC50 (converted)
T1 construct: Full length OGA enzyme was purchased at OnGene (cat #TP322411); purchased OnGene (so in the source)
T1 sequence (O60502 1-916): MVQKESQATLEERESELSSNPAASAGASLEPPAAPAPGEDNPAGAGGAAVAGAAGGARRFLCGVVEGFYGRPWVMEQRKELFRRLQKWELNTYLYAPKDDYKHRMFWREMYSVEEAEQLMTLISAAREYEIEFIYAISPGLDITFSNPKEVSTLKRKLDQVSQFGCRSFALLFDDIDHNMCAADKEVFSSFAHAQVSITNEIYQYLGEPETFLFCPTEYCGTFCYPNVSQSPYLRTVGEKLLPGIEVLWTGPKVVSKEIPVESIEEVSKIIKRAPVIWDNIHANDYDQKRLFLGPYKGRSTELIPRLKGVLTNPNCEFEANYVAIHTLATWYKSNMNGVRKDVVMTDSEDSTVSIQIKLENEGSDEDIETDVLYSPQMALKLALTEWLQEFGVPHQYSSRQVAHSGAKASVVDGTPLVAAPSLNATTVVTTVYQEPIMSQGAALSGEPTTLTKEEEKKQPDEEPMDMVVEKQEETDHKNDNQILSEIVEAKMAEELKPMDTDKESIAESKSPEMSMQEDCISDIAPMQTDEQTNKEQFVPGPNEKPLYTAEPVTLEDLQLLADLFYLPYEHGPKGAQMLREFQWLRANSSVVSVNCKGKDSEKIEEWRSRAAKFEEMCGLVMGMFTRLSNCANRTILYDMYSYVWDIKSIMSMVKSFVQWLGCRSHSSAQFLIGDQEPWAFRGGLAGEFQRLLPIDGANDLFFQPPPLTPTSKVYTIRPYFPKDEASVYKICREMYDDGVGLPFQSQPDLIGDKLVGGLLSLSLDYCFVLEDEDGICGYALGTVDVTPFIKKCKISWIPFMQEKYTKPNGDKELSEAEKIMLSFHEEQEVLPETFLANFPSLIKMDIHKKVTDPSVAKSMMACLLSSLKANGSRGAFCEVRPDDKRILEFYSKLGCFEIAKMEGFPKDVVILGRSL
Procedure, shortened: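 Full-length recombinant human OGA (2 nM) was pre-incubated with compound for 60 min, then reacted with 100 uM FM-GlcNAc for 6 h at room temperature in 200 mM citrate/phosphate pH 7.2 with 0.005% Tween-20. Reactions were stopped with pH 11.0 carbonate and fluorescein read at 485/538 nm. IC50 and Hill coefficient came from curve fitting.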

[2] = tested on: OGA in HEK293 cells inducible for P301L mutant human Tau (isoform 2N4R); experiment: OGA cellular assay: immunocytochemical detection of O-GlcNAcylated proteins (CTD110.6 antibody); format: cell-based; details: Homo sapiens, HEK293, 6 h, 6 hours incubation; for Emax: maximum = Thiamet G 200 uM; for EC50: read-out: Cellular hOGA, pEC50 (converted)
Procedure, shortened: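 Cells seeded 2 days ahead in low-glucose assay medium and exposed to compounds for 6 h at 0.2% DMSO, then PFA-fixed and immunostained. Signal is 488 nm intensity from imaging (9 fields/well), with Hoechst nuclei counts as a toxicity check. IC50 from non-linear regression, with 200 uM Thiamet G per plate as maximum inhibition.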

Compound | Emax [1] [%] | IC50 [1] [nM] | Enzymatic hOGA; pIC50 [1] | Emax [2] [%] | EC50 [2] [nM]
CCCCn1ccc2c(Nc3c(C)cc(C(=O)OC)cc3C)nccc21 [Compound 64] | 102 | 3.98 | – | 80 | 24.5
CCC(C)Cn1ccc2c(Nc3c(C)ccnc3C)nccc21.Cl (centres unmarked) [Compound 16] | 101 | – | 7.83 | 85 | 32.4
CCCCn1ccc2c(Nc3c(Cl)cc4c(c3C)OCCO4)nccc21 [Compound 76] | 101 | 2.95 | – | 100 | 23.4
Cc1cncc(C)c1Nc1nccc2c1ccn2CCC1CC1 [Compound 49] | 103 | 11.7 | – | 63 | 79.4
CCCCn1ccc2c(Nc3c(C)cc(NC(C)=O)cc3C)nccc21 [Compound 62] | 101 | 5.37 | – | 95 | 9.33
Cc1ccnc(C(F)F)c1Nc1nccc2c1ccn2CC1CCO1 (centres unmarked) [Compound 81] | 102 | 9.55 | – | 74 | 102
Cc1ccnc(C)c1Nc1nccc2c1ccn2CC(C)(C)C#N [Compound 84] | 86 | 2140 | – | 8 | > 1000
Cc1ccnc(C)c1Nc1nccc2c1ccn2CC(F)(F)C1CC1 [Compound 23] | 102 | – | 8.84 | 97 | 2.95

Second part, led by results:

Emax [1] [%] | IC50 [1] [nM] | Enzymatic hOGA; pIC50 [1] | Compound | Emax [2] [%] | EC50 [2] [nM]
104 | 12 | – | Clc1cccc(Cl)c1Nc1nccc2c1ccn2Cc1ncco1 [Compound 169] | 67.5 | 550
102 | – | 8.89 | Cc1cc(F)cc(C(C)C)c1Nc1nccc2c1ccn2CC(C)(F)F [Compound 148] | 87.5 | ~4.79
103 | – | 8.07 | Cc1ccnc(C(C)C)c1Nc1nccc2c1ccn2CC1CCCO1 (centres unmarked) [Compound 138] | 66.8 | 74.1
102 | 2.24 | – | Cc1cc(C(F)(F)F)nc(C)c1Nc1nccc2c1ccn2CC(F)(F)C(C)C [Compound 185] | 99.8 | 9.77
100 | – | 7.79 | CC[C@@H](O)Cn1ccc2c(Nc3c(C)cc(F)cc3C)nccc21 [Compound 145a] | 81.2 | 56.2
102 | – | 8 | FC1(F)CC(Cn2ccc3c(Nc4c(Cl)cccc4Cl)nccc32)C1 [Compound 91] | 73 | 79.4
101 | 47.9 | – | N#Cc1ccc(-n2ccc3c(Nc4c(Cl)cccc4Cl)nccc32)nc1 [Compound 166] | 44.1 | 1000
103 | 6.03 | – | Cc1cc(F)cc(C(C)C)c1Nc1nccc2c1ccn2CC1CC(F)(F)C1 [Compound 171] | 73.8 | 38.9
101 | – | 7.64 | Fc1cc(Cl)c(Nc2nccc3c2ccn3CC2CCCO2)c(Cl)c1 (centres unmarked) [Compound 136] | 74.9 | 240
